# Measured values from patent publication US7799770B2, “Solid body forms of mesoprogestin 11β-{4E-(hydroxyiminomethyl)-phenyl}-17α methoxymethyl-17β-methoxy-estra-4,9-dien-3-one” (Bayer Schering Pharma AG, priority 2000, dated 2010).
# Assays:
# Solubility in toluene = type: physicochemical
# Excerpt: The production of the solvate form that is suitable for the solid final form of the oxime can be associated, according to the invention, with the separation of the Z-isomer and the dioximes. By a specific use of the thermodynamic instability of suitable solvates, preferably the solvate of methyl-tert-butyl ether (MTBE) in a solvent environment that is suitable for this purpose, complete dissolution of the solvate lattice is possible far above the solubility limit and even close to room temperature. […] A so-called cold melting is carried out. This state can be kept stable by adding suitable solvents as recrystallization inhibitors for technical applications. The supersaturation state can be stabilized for hours in toluene solution by adding only 5% by volume of methanol. Then, by adding solvating agent-solvent (MTBE) at suitable concentration (e.g., 100-130% by volume of MTBE, relative to the toluene that is used), the solvate lattice is built up again, whereby the contaminants remain in solution for the most part.
# progesterone receptor = molecular target: T1, progesterone receptor (Homo sapiens, UniProt P06401); details: according to EP-A-0 648 778 or DE-A-43 32 283; cited from earlier work
# T1 sequence (P06401 1-933): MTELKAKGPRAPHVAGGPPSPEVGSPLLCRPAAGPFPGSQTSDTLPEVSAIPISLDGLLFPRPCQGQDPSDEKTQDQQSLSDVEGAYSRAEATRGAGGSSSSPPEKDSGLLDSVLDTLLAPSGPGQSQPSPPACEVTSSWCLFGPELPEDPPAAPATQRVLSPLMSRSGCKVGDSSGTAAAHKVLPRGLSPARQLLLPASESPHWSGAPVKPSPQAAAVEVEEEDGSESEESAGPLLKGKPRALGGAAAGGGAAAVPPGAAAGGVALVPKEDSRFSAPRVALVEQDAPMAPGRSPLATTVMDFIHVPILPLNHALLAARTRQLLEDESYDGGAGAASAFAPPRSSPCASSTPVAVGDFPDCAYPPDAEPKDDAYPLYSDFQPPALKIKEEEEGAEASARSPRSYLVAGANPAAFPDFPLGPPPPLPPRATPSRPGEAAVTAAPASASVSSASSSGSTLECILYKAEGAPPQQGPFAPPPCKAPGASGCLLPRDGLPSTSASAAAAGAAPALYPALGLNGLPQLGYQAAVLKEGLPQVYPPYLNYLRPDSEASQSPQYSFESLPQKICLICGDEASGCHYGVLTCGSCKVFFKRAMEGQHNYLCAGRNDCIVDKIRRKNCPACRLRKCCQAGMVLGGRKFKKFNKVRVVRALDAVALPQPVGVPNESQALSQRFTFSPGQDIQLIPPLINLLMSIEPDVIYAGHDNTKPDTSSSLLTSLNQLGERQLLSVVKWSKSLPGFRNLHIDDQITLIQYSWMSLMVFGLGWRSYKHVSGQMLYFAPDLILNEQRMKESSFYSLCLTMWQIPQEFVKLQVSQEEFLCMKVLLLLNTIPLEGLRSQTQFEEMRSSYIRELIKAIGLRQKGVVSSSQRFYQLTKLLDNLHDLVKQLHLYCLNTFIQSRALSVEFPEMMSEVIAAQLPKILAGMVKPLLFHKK
# [1] = system: antiglucocorticoidal activity; details: according to EP-A-0 648 778 or DE-A-43 32 283; cited from earlier work
# [2] = Shelf life / accelerated ICH-stability test; type: physicochemical
# Method: In FIG. 5, an x-ray-powder diffractogram of amorphous 11β-[4E-(hydroxyiminomethyl)phenyl]-17α-methoxymethyl-17β-methoxy-estra-4,9-dien-3-one is depicted at time 0 (start), after 12 months at 25° C. and after 12 months at 40° C.
# (§1) By the stability, negative influences of such conversions on the bio-availability of the active ingredient are avoided.
# [3] = Solubility studies (saturation solubility in water without and with 0.25% SDS); type: physicochemical
# Method: 200 mg of substance was added at 25° C. into 50 ml of water (without and with 0.25% SDS (sodium lauryl sulfate)). Samples were taken after 0.5 hour, 2 hours, 5 hours and 24 hours.
# Sampling: 0.45 μm filter attachment, dilution 1:1 with MeOH, HPLC.
# [4] = Stability of the physical structure during pharmaceutical processing (wet granulation, pelletizing); type: physicochemical
# Excerpt: as §1
compound,measurement,setting,value
"COC[C@]1(OC)CC[C@H]2[C@@H]3CCC4=CC(=O)CCC4=C3[C@@H](c3ccc(/C=N/O)cc3)C[C@@]21C [MTBE solvate, 11β-[4E-(hydroxyiminomethyl)phenyl]-17α-methoxymethyl-17β-methoxy-estra-4,9-dien-3-one]",solubility in toluene,Solubility in toluene,3.3 % by weight
"COC[C@]1(OC)CC[C@H]2[C@@H]3CCC4=CC(=O)CCC4=C3[C@@H](c3ccc(/C=N/O)cc3)C[C@@]21C [Oxime J867, 11β-[4E-(hydroxyiminomethyl)phenyl]-17α-methoxymethyl-17β-methoxy-estra-4,9-dien-3-one]",activity on the progesterone receptor compared with RU 486 (mifepristone),progesterone receptor,same activity as RU 486 (mifepristone)
same,antiglucocorticoidal activity compared with RU 486,[1],significantly reduced
"COC[C@]1(OC)CC[C@H]2[C@@H]3CCC4=CC(=O)CCC4=C3[C@@H](c3ccc(/C=N/O)cc3)C[C@@]21C [amorphous form of oxime J867, 11β-[4E-(hydroxyiminomethyl)phenyl]-17α-methoxymethyl-17β-methoxy-estra-4,9-dien-3-one]",signs of recrystallization and/or chemical decomposition of the amorphous structure,"[2]; after 12 months, 40° C., 75% relative humidity",does not show any signs of a recrystallization and/or chemical decomposition
same,time for which the high supersaturation level remains stable,[3]; in surfactant solution (sodium lauryl sulfate),stable for several hours
same,time for which the high supersaturation level remains stable,[3]; in water,over 24 hours
same,"physical structure during pharmaceutical processing (conversion amorphous to highly crystalline, E/Z isomerization)",[4],remains stable
"COC[C@]1(OC)CC[C@H]2[C@@H]3CCC4=CC(=O)CCC4=C3[C@@H](c3ccc(/C=N/O)cc3)C[C@@]21C [highly crystalline form of oxime J 867, 11β-[4E-(hydroxyiminomethyl)phenyl]-17α-methoxymethyl-17β-methoxy-estra-4,9-dien-3-one ansolvate]",chemical stability compared with the amorphous form,[2]; especially under stress (high temperatures and humidities),higher than that of the amorphous form
